Conditions: Liquid, Vibrating tube method

CCCCCCC [heptane]
mass density [kg/m3]
Conditions | 323.15 K | 328.15 K | 333.15 K | 343.15 K | 353.15 K | 363.15 K | 373.15 K | 393.15 K | 413.15 K
100 kPa | – | 653.9 | 649.5 | 640.5 | 631.3 | 621.9 | – | – | –
1000 kPa | – | 654.9 | 650.6 | 641.6 | 632.5 | 623.2 | 614.2 | 594.6 | 574.1
5000 kPa | – | 659.3 | 655.1 | 646.5 | 637.8 | 628.9 | 620.2 | 601.7 | 582.3
10000 kPa | – | 664.5 | 660.5 | 652.3 | 644 | 635.6 | 627.4 | 610 | 592
15000 kPa | – | 669.5 | 665.7 | 657.8 | 649.9 | 641.9 | 634.1 | 617.8 | 600.9
20000 kPa | – | 674.3 | 670.6 | 663.1 | 655.5 | 647.9 | 640.4 | 625 | 609.2
25000 kPa | – | 678.8 | 675.2 | 668 | 660.7 | 653.4 | 646.3 | 631.7 | 616.9
30000 kPa | – | 683 | 679.6 | 672.6 | 665.6 | 658.6 | 651.8 | 637.9 | 623.9
35000 kPa | – | 687 | 683.7 | 676.9 | 670.2 | 663.5 | 656.9 | 643.6 | 630.2
40000 kPa | 694.1 | 690.8 | 687.5 | 681 | 674.4 | 667.9 | 661.5 | 648.7 | 635.9
45000 kPa | 697.5 | 694.3 | 691.1 | 684.7 | 678.3 | 672 | 665.8 | 653.3 | 640.9
50000 kPa | 700.7 | 697.6 | 694.4 | 688.1 | 681.9 | 675.7 | 669.6 | 657.4 | 645.2
55000 kPa | 703.7 | 700.6 | 697.4 | 691.3 | 685.1 | 679 | 673.1 | 660.9 | 648.9
60000 kPa | 706.4 | 703.3 | 700.2 | 694.1 | 688 | 681.9 | 676.1 | 663.9 | 651.9

Source: the NIST ThermoML archive (doi:10.1016/j.jct.2016.04.014)
